# Experimental data: the supplement of paper PMC10307832
# Experiments:
# Experiment in all cases: relative viability (nuclei count vs DMSO), 5 days (fraction); higher = more cells survive
# [1] = system: A-427
# In short: (§1)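 After 5 days of treatment, lung cancer cells in 1536-well plates were fixed and stained in a single step (final 0.05% Triton X-100, 1% formaldehyde, 1 ug/ml Hoechst) and their nuclei counted on 4× images. Treatment had been applied by pin tool the day after seeding as one drug alone or as a fixed anchor-drug dose with five library-drug doses (not always all listed) in √10 steps. Relative viability is the nuclei count of treated wells divided by that of vehicle wells, and values are medians of duplicate plates.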
# [2] = system: EMC-BAC-2
# In short: as §1
# [3] = system: HARA
# In short: as §1
# [4] = system: HOP-62
# In short: as §1
# [5] = system: LK-2
# In short: as §1
# [6] = system: LXF-289
# In short: as §1
# [7] = system: NCI-H1792
# In short: as §1
# [8] = system: NCI-H1944
# In short: as §1
# [9] = system: NCI-H1993
# In short: as §1
# [10] = system: NCI-H2009
# In short: as §1
# [11] = system: NCI-H2170
# In short: as §1
# [12] = system: NCI-H2228
# In short: as §1
# [13] = system: NCI-H3122
# In short: as §1
# [14] = system: NCI-H322M
# In short: as §1
# [15] = system: NCI-H522
# In short: as §1
# [16] = system: NCI-H596
# In short: as §1
# [17] = system: NCI-H727
# In short: as §1
# [18] = system: PC-3 [JPC-3]
# In short: as §1
# [19] = system: SK-MES-1
# In short: as §1
# [20] = system: SW 1573
# In short: as §1
# [21] = system: SW 900
# In short: as §1
smiles,measurement,setting,value
COc1cc2nccc(Oc3ccc(NC(=O)Nc4cc(C)on4)c(Cl)c3)c2cc1OC [Tivozanib] + CC(=O)Nc1cccc(-n2c(=O)n(C3CC3)c(=O)c3c(Nc4ccc(I)cc4F)n(C)c(=O)c(C)c32)c1 [Trametinib] (partner 0.02 µM),relative viability,[1]; first compound 0.005 µM,0.696
same,relative viability,[1]; first compound 0.01581 µM,0.718
same,relative viability,[1]; first compound 0.05 µM,0.758
same,relative viability,[1]; first compound 0.1581 µM,0.67
same,relative viability,[1]; first compound 0.5 µM,0.686
same,relative viability,[2]; first compound 0.005 µM,0.886
same,relative viability,[2]; first compound 0.01581 µM,0.844
same,relative viability,[2]; first compound 0.05 µM,0.905
same,relative viability,[2]; first compound 0.1581 µM,0.827
same,relative viability,[2]; first compound 0.5 µM,0.952
same,relative viability,[3]; first compound 0.005 µM,0.628
same,relative viability,[3]; first compound 0.01581 µM,0.817
same,relative viability,[3]; first compound 0.05 µM,0.615
same,relative viability,[3]; first compound 0.1581 µM,1.06
same,relative viability,[3]; first compound 0.5 µM,0.744
same,relative viability,[4]; first compound 0.005 µM,0.343
same,relative viability,[4]; first compound 0.01581 µM,0.398
same,relative viability,[4]; first compound 0.05 µM,0.439
same,relative viability,[4]; first compound 0.1581 µM,0.377
same,relative viability,[4]; first compound 0.5 µM,0.502
same,relative viability,[5]; first compound 0.005 µM,0.933
same,relative viability,[5]; first compound 0.01581 µM,0.534
same,relative viability,[5]; first compound 0.05 µM,0.622
same,relative viability,[5]; first compound 0.1581 µM,0.85
same,relative viability,[5]; first compound 0.5 µM,0.773
same,relative viability,[6]; first compound 0.005 µM,0.698
same,relative viability,[6]; first compound 0.01581 µM,0.674
same,relative viability,[6]; first compound 0.05 µM,0.629
same,relative viability,[6]; first compound 0.1581 µM,0.646
same,relative viability,[6]; first compound 0.5 µM,0.668
same,relative viability,[7]; first compound 0.005 µM,0.401
same,relative viability,[7]; first compound 0.01581 µM,0.397
same,relative viability,[7]; first compound 0.05 µM,0.438
same,relative viability,[7]; first compound 0.5 µM,0.632
same,relative viability,[8]; first compound 0.005 µM,0.344
same,relative viability,[8]; first compound 0.01581 µM,0.453
same,relative viability,[8]; first compound 0.05 µM,0.399
same,relative viability,[8]; first compound 0.1581 µM,0.423
same,relative viability,[8]; first compound 0.5 µM,0.455
same,relative viability,[9]; first compound 0.005 µM,0.562
same,relative viability,[9]; first compound 0.01581 µM,0.354
same,relative viability,[9]; first compound 0.05 µM,0.625
same,relative viability,[9]; first compound 0.1581 µM,0.63
same,relative viability,[9]; first compound 0.5 µM,0.502
same,relative viability,[10]; first compound 0.005 µM,0.269
same,relative viability,[10]; first compound 0.01581 µM,0.323
same,relative viability,[10]; first compound 0.05 µM,0.295
same,relative viability,[10]; first compound 0.1581 µM,0.204
same,relative viability,[10]; first compound 0.5 µM,0.339
same,relative viability,[11]; first compound 0.005 µM,0.827
same,relative viability,[11]; first compound 0.01581 µM,0.92
same,relative viability,[11]; first compound 0.05 µM,0.893
same,relative viability,[11]; first compound 0.5 µM,0.983
same,relative viability,[12]; first compound 0.005 µM,0.55
same,relative viability,[12]; first compound 0.01581 µM,0.595
same,relative viability,[12]; first compound 0.05 µM,0.514
same,relative viability,[12]; first compound 0.1581 µM,0.249
same,relative viability,[12]; first compound 0.5 µM,0.539
same,relative viability,[13]; first compound 0.005 µM,0.197
same,relative viability,[13]; first compound 0.01581 µM,0.213
same,relative viability,[13]; first compound 0.05 µM,0.229
same,relative viability,[13]; first compound 0.1581 µM,0.235
same,relative viability,[13]; first compound 0.5 µM,0.321
same,relative viability,[14]; first compound 0.005 µM,0.509
same,relative viability,[14]; first compound 0.01581 µM,0.602
same,relative viability,[14]; first compound 0.05 µM,0.55
same,relative viability,[14]; first compound 0.1581 µM,0.517
same,relative viability,[14]; first compound 0.5 µM,0.577
same,relative viability,[15]; first compound 0.005 µM,0.877
same,relative viability,[15]; first compound 0.01581 µM,0.732
same,relative viability,[15]; first compound 0.05 µM,0.705
same,relative viability,[15]; first compound 0.1581 µM,0.684
same,relative viability,[15]; first compound 0.5 µM,0.804
same,relative viability,[16]; first compound 0.005 µM,0.653
same,relative viability,[16]; first compound 0.01581 µM,0.834
same,relative viability,[16]; first compound 0.05 µM,0.725
same,relative viability,[16]; first compound 0.5 µM,0.931
same,relative viability,[17]; first compound 0.005 µM,0.385
same,relative viability,[17]; first compound 0.01581 µM,0.419
same,relative viability,[17]; first compound 0.05 µM,0.366
same,relative viability,[17]; first compound 0.1581 µM,0.38
same,relative viability,[17]; first compound 0.5 µM,0.398
same,relative viability,[18]; first compound 0.01581 µM,0.686
same,relative viability,[18]; first compound 0.05 µM,0.807
same,relative viability,[18]; first compound 0.1581 µM,0.674
same,relative viability,[18]; first compound 0.5 µM,0.811
same,relative viability,[19]; first compound 0.005 µM,0.542
same,relative viability,[19]; first compound 0.01581 µM,0.602
same,relative viability,[19]; first compound 0.05 µM,0.558
same,relative viability,[19]; first compound 0.1581 µM,0.542
same,relative viability,[19]; first compound 0.5 µM,0.7
same,relative viability,[20]; first compound 0.005 µM,0.541
same,relative viability,[20]; first compound 0.01581 µM,0.644
same,relative viability,[20]; first compound 0.05 µM,0.464
same,relative viability,[20]; first compound 0.1581 µM,0.457
same,relative viability,[20]; first compound 0.5 µM,0.416
same,relative viability,[21]; first compound 0.005 µM,0.692
same,relative viability,[21]; first compound 0.01581 µM,1.18
same,relative viability,[21]; first compound 0.05 µM,1.04
same,relative viability,[21]; first compound 0.5 µM,0.829
